The target of test [1] is T1, FAAH (Mus musculus (Mouse), UniProt O08914). In words: Mouse brain proteomes from inhibitor treated mice (oral gavage, sacrificed 4 h after administration, ABPP analysis), FAAH. The class given is in vivo, mouse (C57Bl/6J). The note with it: 5 mg/kg oral gavage. The procedure, abridged: (§1)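 Wild-type C57Bl/6J mice; p.o. gavage, vehicle e.g. PEG400/EtOH/PBS 7/2/1; 5 mg/kg. Brain harvested 4 h post-dose, proteome profiled by ABPP. Read-out: % inhibition.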

Test [2] concerns the target T2, ABHD6 (Mus musculus (Mouse), UniProt Q8R2Y0). Nature of the test: Mouse brain proteomes from inhibitor treated mice (oral gavage, sacrificed 4 h after administration, ABPP analysis), ABHD6. Particulars: 5 mg/kg oral gavage. The class given is in vivo, mouse (C57Bl/6J). The procedure, abridged: as §1
Test [3] concerns the target T1, FAAH. Nature of the test: In vitro competitive activity-based protein profiling (mouse brain membrane fraction or cell lysates), FAAH band. The note with it: mouse proteome; for inhibition at 1 µM: read-out: FAAH % Inh 1 μM (mouse); for IC50: competitive ABPP. The class given is biochemical. The procedure, abridged:
(§2)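 Competitive ABPP: proteome 1.0 mg/mL protein + inhibitor, 30 min, 37° C; FP-Rh probe (stock 50 μM in DMSO) added, 30 min, 37° C; SDS quench, SDS-PAGE, fluorescent band intensity read.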

The target in test [4] is T2, ABHD6. Nature of the test: In vitro competitive activity-based protein profiling (mouse brain membrane fraction or cell lysates), ABHD6 band. The class given is biochemical. Particulars: mouse proteome; for inhibition at 1 µM: read-out: ABHD6 % Inh 1 μM (mouse); for IC50: competitive ABPP. The procedure, abridged: as §2
Test [5] addresses T3, MAGL (Mus musculus (Mouse), UniProt O35678). In words: In vitro competitive activity-based protein profiling (mouse brain membrane fraction or cell lysates), MAGL band. The class given is biochemical. The note with it: mouse proteome; for inhibition at 1 µM: read-out: MAGL % Inh 1 μM (mouse); for IC50: competitive ABPP. How it is done: In Vitro Competitive Activity-Based Protein Profiling.
Proteomes (mouse brain membrane fraction or cell lysates) (50 μL, 1.0 mg/mL total protein concentration) were preincubated with varying concentrations of inhibitors at 37° C. After 30 min, FP—Rh (1.0 μL, 50 μM in DMSO) was added and the mixture was incubated for another 30 min at 37° C. Reactions were quenched with SDS loading buffer (50 μL-4×) and run on SDS-PAGE.

The target in test [6] is T3, MAGL. In words: Mouse brain proteomes from inhibitor treated mice (oral gavage, sacrificed 4 h after administration, ABPP analysis). The note with it: 5 mg/kg oral gavage. The class given is in vivo, mouse (C57Bl/6J). The procedure, abridged:
as §1

T1 sequence (O08914 whole entry): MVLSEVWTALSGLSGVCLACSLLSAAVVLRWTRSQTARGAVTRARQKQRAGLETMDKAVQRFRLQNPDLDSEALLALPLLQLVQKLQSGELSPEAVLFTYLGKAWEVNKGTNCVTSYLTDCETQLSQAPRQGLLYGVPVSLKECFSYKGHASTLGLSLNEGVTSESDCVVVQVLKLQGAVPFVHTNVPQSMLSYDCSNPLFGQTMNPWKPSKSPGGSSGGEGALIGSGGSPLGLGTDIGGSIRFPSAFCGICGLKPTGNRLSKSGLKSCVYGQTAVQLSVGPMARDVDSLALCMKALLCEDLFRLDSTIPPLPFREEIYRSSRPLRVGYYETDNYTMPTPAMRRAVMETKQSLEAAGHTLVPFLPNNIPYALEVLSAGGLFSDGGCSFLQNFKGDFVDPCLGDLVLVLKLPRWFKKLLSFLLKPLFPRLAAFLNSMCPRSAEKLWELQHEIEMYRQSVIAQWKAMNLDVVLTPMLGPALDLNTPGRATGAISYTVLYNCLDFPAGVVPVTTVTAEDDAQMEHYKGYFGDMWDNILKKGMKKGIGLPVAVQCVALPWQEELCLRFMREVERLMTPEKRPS
T2 sequence (Q8R2Y0 whole entry): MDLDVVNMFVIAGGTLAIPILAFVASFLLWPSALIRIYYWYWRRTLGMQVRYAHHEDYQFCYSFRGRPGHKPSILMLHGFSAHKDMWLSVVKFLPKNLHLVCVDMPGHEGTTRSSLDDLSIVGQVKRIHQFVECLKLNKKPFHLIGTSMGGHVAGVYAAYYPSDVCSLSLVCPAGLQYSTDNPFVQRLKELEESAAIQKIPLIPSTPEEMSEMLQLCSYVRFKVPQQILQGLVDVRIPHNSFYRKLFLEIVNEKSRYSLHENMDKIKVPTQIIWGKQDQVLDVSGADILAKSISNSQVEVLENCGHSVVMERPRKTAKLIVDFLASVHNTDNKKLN
T3 sequence (O35678 whole entry): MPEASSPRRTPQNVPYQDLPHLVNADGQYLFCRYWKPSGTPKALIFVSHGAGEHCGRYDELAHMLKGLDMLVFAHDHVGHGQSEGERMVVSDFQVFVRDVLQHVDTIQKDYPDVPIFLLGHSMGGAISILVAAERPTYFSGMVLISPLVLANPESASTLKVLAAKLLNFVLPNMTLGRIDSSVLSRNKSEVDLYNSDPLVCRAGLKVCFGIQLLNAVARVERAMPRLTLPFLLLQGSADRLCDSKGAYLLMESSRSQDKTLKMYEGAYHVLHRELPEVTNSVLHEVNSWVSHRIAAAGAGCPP

The term IC50 denotes the concentration needed to halve the response being measured. A low value points to greater potency in that assay. As to `CN1CCN(c2c(Cl)cccc2CN2CC3(CCN(C(=O)OC(C(F)(F)F)C(F)(F)F)CC3)CC2(C)C)CC1` [Example 189, 1,1,1,3,3,3-Hexafluoropropan-2-yl 2-(3-chloro-2-(4-methylpiperazin-1-yl)benzyl)-3,3-dimethyl-2,8-diazaspiro[4.5]decane-8-carboxylate], the “FAAH % Inh 5 mg/kg (mouse)” value on FAAH [1] was “# (# is <25%)”. Moreover, the “ABHD6 % Inh 5 mg/kg (mouse)” value on ABHD6 [2] was “# (# is <25%)”. The inhibition at 1 µM at FAAH [3] is less than 25%; at ABHD6 [4], 25 to 75%; on MAGL [5] it was more than 75%. The IC50 at FAAH [3] was more than 1 µM; on ABHD6 [4] it was 0.1 to 1 µM; at MAGL [5], less than 0.1 µM. Moreover, the “MAGL % Inh 5 mg/kg (mouse)” value on MAGL [6] is “## (## is equal to or greater than 25% but less than 75%)”.
Consider `O=C(OC(C(F)(F)F)C(F)(F)F)N1CCC2(CCCN2Cc2ccc(Cl)cc2N2CCCCC2)CC1` [Example 74, 1,1,1,3,3,3-Hexafluoropropan-2-yl 1-(4-chloro-2-(piperidin-1-yl)benzyl)-1,8-diazaspiro[4.5]decane-8-carboxylate], for which the “FAAH % Inh 5 mg/kg (mouse)” value on FAAH [1] is reported as “# (# is <25%)”. Besides, the “ABHD6 % Inh 5 mg/kg (mouse)” value at ABHD6 [2] is on record as “# (# is <25%)”. Also, the inhibition at 1 µM on FAAH [3] is less than 25%; on ABHD6 [4], 25 to 75%; at MAGL [5] it was more than 75%. Moreover, the figures for the concentration for half-maximal inhibition (IC50) on FAAH [3], on ABHD6 [4] and at MAGL [5] were more than 1 µM, more than 1 µM and less than 0.1 µM, respectively. For the same compound, at MAGL [6], the “MAGL % Inh 5 mg/kg (mouse)” value is “## (## is equal to or greater than 25% but less than 75%)”.
Consider `O=C(OC(C(F)(F)F)C(F)(F)F)N1CCC2(CCN(Cc3ccc(C(F)(F)F)cc3N3CCCCC3)C2)CC1` [Example 23, 1,1,1,3,3,3-Hexafluoropropan-2-yl 2-(2-(piperidin-1-yl)-4-(trifluoromethyl)benzyl)-2,8-diazaspiro[4.5]decane-8-carboxylate], for which, on FAAH [1], the “FAAH % Inh 5 mg/kg (mouse)” value is “# (# is <25%)”. For the same compound, at ABHD6 [2], the “ABHD6 % Inh 5 mg/kg (mouse)” value is given as “# (# is <25%)”. The inhibition at 1 µM on FAAH [3] was less than 25%; on ABHD6 [4], less than 25%; at MAGL [5] it was more than 75%. For the same compound, the figures for the IC50 at FAAH [3], at ABHD6 [4] and at MAGL [5] were more than 1 µM, more than 1 µM and less than 0.1 µM, respectively. Further, the “MAGL % Inh 5 mg/kg (mouse)” value at MAGL [6] is “## (## is equal to or greater than 25% but less than 75%)”.
For `CCOc1cccc(CN2CCCC23CCN(C(=O)OC(C(F)(F)F)C(F)(F)F)CC3)c1` [Example 5, 1,1,1,3,3,3-Hexafluoropropan-2-yl 1-(3-ethoxybenzyl)-1,8-diazaspiro[4.5]decane-8-carboxylate], the “FAAH % Inh 5 mg/kg (mouse)” value on FAAH [1] is listed as “# (# is <25%)”. Further, the “ABHD6 % Inh 5 mg/kg (mouse)” value at ABHD6 [2] is “## (## is equal to or greater than 25% but less than 75%)”. Further, the inhibition at 1 µM at FAAH [3] is less than 25%; at ABHD6 [4], less than 25%; on MAGL [5] it was more than 75%. The values for the IC50 at FAAH [3], on ABHD6 [4] and at MAGL [5] were more than 1 µM, more than 1 µM and less than 0.1 µM, respectively. At MAGL [6], the “MAGL % Inh 5 mg/kg (mouse)” value was “### (### is ≥75%)”.
Turning to `O=C(OC(C(F)(F)F)C(F)(F)F)N1CCC2(CCCN2Cc2ccc(C(F)(F)F)cc2N2CC3COCC3C2)CC1` (stereo not drawn) [Example 97, 1,1,1,3,3,3-Hexafluoropropan-2-yl 1-(2-(tetrahydro-1H-furo[3,4-c]pyrrol-5(3H)-yl)-4-(trifluoromethyl)benzyl)-1,8-diazaspiro[4.5]decane-8-carboxylate], the “FAAH % Inh 5 mg/kg (mouse)” value on FAAH [1] is recorded as “# (# is <25%)”. Also, the “ABHD6 % Inh 5 mg/kg (mouse)” value at ABHD6 [2] is listed as “# (# is <25%)”. Further, the inhibition at 1 µM on FAAH [3] was less than 25%; at ABHD6 [4] it was less than 25%; on MAGL [5], more than 75%. Moreover, the half-inhibitory concentration (IC50) is more than 1 µM at FAAH [3], more than 1 µM on ABHD6 [4] and less than 0.1 µM on MAGL [5]. Moreover, the “MAGL % Inh 5 mg/kg (mouse)” value on MAGL [6] is “### (### is ≥75%)”.
For the compound `O=C(OC(C(F)(F)F)C(F)(F)F)N1CCC2(CCCN2Cc2cc(N3CC4COCC4C3)cc(C(F)(F)F)c2)CC1` (stereo not drawn) [Example 46, 1,1,1,3,3,3-Hexafluoropropan-2-yl 1-(3-(tetrahydro-1H-furo[3,4-c]pyrrol-5(3H)-yl)-5-(trifluoromethyl)benzyl)-1,8-diazaspiro[4.5]decane-8-carboxylate], the “FAAH % Inh 5 mg/kg (mouse)” value at FAAH [1] is “# (# is <25%)”. Moreover, the “ABHD6 % Inh 5 mg/kg (mouse)” value on ABHD6 [2] was “# (# is <25%)”. For the same compound, the IC50 at FAAH [3] is more than 1 µM; on ABHD6 [4], more than 1 µM; on MAGL [5], less than 0.1 µM. For the same compound, on MAGL [6], the “MAGL % Inh 5 mg/kg (mouse)” value is listed as “### (### is ≥75%)”.
Regarding `O=C(OC(C(F)(F)F)C(F)(F)F)N1CCC2(CCCN2Cc2ccc(C(F)(F)F)c(Cl)c2)CC1` [Example 183, 1,1,1,3,3,3-Hexafluoropropan-2-yl 1-(3-chloro-4-(trifluoromethyl)benzyl)-1,8-diazaspiro[4.5]decane-8-carboxylate], on FAAH [1], the “FAAH % Inh 5 mg/kg (mouse)” value was “# (# is <25%)”. In addition, the “ABHD6 % Inh 5 mg/kg (mouse)” value on ABHD6 [2] was “# (# is <25%)”. Moreover, the values for the inhibition at 1 µM at FAAH [3], on ABHD6 [4] and at MAGL [5] were less than 25%, 25 to 75% and more than 75%, respectively. Besides, the IC50 on FAAH [3] is more than 1 µM; at ABHD6 [4] it was more than 1 µM; at MAGL [5], less than 0.1 µM. For the same compound, the “MAGL % Inh 5 mg/kg (mouse)” value at MAGL [6] is listed as “### (### is ≥75%)”.
Consider `O=C(OC(C(F)(F)F)C(F)(F)F)N1CCC2(CCN(Cc3ccc(C(F)(F)F)cc3N3CCOCC3)C2)CC1` [Example 22, 1,1,1,3,3,3-Hexafluoropropan-2-yl 2-(2-morpholino-4-(trifluoromethyl)benzyl)-2,8-diazaspiro[4.5]decane-8-carboxylate], for which the “FAAH % Inh 5 mg/kg (mouse)” value on FAAH [1] was “# (# is <25%)”. Moreover, the “ABHD6 % Inh 5 mg/kg (mouse)” value on ABHD6 [2] is “# (# is <25%)”. The results for the inhibition at 1 µM on FAAH [3], on ABHD6 [4] and on MAGL [5] were less than 25%, not below 75% and more than 75%, respectively. Besides, the half-inhibitory concentration (IC50) on FAAH [3] is more than 1 µM; on ABHD6 [4], 0.1 to 1 µM; at MAGL [5], less than 0.1 µM. Besides, the “MAGL % Inh 5 mg/kg (mouse)” value at MAGL [6] is given as “### (### is ≥75%)”.
In the case of `Cc1cc(CN2CCCC23CCN(C(=O)OC(C(F)(F)F)C(F)(F)F)CC3)ccc1Cl` [Example 124, 1,1,1,3,3,3-Hexafluoropropan-2-yl 1-(4-chloro-3-methylbenzyl)-1,8-diazaspiro[4.5]decane-8-carboxylate], on FAAH [1], the “FAAH % Inh 5 mg/kg (mouse)” value was “# (# is <25%)”. Further, the “ABHD6 % Inh 5 mg/kg (mouse)” value at ABHD6 [2] is reported as “# (# is <25%)”. Also, the inhibition at 1 µM on FAAH [3] was less than 25%; on ABHD6 [4], less than 25%; at MAGL [5] it was more than 75%. The IC50 at FAAH [3] was more than 1 µM; at ABHD6 [4], more than 1 µM; on MAGL [5], less than 0.1 µM. Further, the “MAGL % Inh 5 mg/kg (mouse)” value at MAGL [6] is reported as “### (### is ≥75%)”.
As to `O=C(COc1cc(CN2CCCC23CCN(C(=O)OC(C(F)(F)F)C(F)(F)F)CC3)cc(C(F)(F)F)c1)N1CCCC1` [Example 168, 1,1,1,3,3,3-Hexafluoropropan-2-yl 1-(3-(2-oxo-2-(pyrrolidin-1-yl)ethoxy)-5-(trifluoromethyl)benzyl)-1,8-diazaspiro[4.5]decane-8-carboxylate], the “FAAH % Inh 5 mg/kg (mouse)” value at FAAH [1] is given as “# (# is <25%)”. For the same compound, the “ABHD6 % Inh 5 mg/kg (mouse)” value at ABHD6 [2] is reported as “# (# is <25%)”. The inhibition at 1 µM was less than 25% on FAAH [3], less than 25% on ABHD6 [4] and more than 75% at MAGL [5]. Further, the IC50 at FAAH [3] was more than 1 µM; on ABHD6 [4], more than 1 µM; at MAGL [5], less than 0.1 µM. For the same compound, the “MAGL % Inh 5 mg/kg (mouse)” value on MAGL [6] was “## (## is equal to or greater than 25% but less than 75%)”.
